{"source": "patent US20130303509A1", "about": "“NAMPT INHIBITORS” (AbbVie Inc., priority 2012, published 2013)", "data": [{"system": "PC3 cells", "experiment": "NAMPT Cell Proliferation Assay", "assay_type": "cell-based", "details": "Homo sapiens, PC-3, 120 h, 5 days incubation, cell viability by Cell Titer Glo", "method_in_brief": "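Seeded at 500 cells/well in RPMI with 10% heat-inactivated FBS and left to attach overnight at 37° C, 5% CO2. Compounds were added as 10-fold dilutions […] for 5 days, then viability was read by CellTiter-Glo. IC50s came from sigmoidal fits of percent inhibition.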", "units": {"IC50": "nM"}, "values": [{"smiles": "CC1CC1C(=O)N1CCC(c2ccc(NC(=O)C3CN(c4cccnc4)C3)cc2)CC1", "note": "(stereo not shown) [Example 102, N-(4-{1-[(2-methylcyclopropyl)carbonyl]piperidin-4-yl}phenyl)-1-(pyridin-3-yl)azetidine-3-carboxamide]", "IC50": 0.59}, {"smiles": "O=C(Nc1ccc(C2CCN(C(=O)CN3CCOCC3)CC2)cc1)C1CN(c2cccnc2)C1", "note": "[Example 103, N-{4-[1-(morpholin-4-ylacetyl)piperidin-4-yl]phenyl}-1-(pyridin-3-yl)azetidine-3-carboxamide]", "IC50": 1.44}, {"smiles": "O=C(Nc1ccc(C2CCN(C(=O)c3ccoc3)CC2)cc1)C1CN(c2cccnc2)C1", "note": "[Example 104, N-{4-[1-(furan-3-ylcarbonyl)piperidin-4-yl]phenyl}-1-(pyridin-3-yl)azetidine-3-carboxamide]", "IC50": 0.18}, {"smiles": "O=C(Nc1ccc(C2CCN(C(=O)CN3CCCC3)CC2)cc1)C1CN(c2cccnc2)C1", "note": "[Example 105, 1-(pyridin-3-yl)-N-{4-[1-(pyrrolidin-1-ylacetyl)piperidin-4-yl]phenyl}azetidine-3-carboxamide]", "IC50": 6.17}, {"smiles": "O=C1CC[C@H](C(=O)N2CCC(c3ccc(NC(=O)C4CN(c5cccnc5)C4)cc3)CC2)N1", "note": "[Example 106, N-{4-[1-(5-oxo D-prolyl)piperidin-4-yl]phenyl}-1-(pyridin-3-yl)azetidine-3-carboxamide]", "IC50": 61.8}, {"smiles": "CN(C)CCC(=O)N1CCC(c2ccc(NC(=O)C3CN(c4cccnc4)C3)cc2)CC1", "note": "[Example 107, N-{4-[1-(N,N-dimethyl-beta-alanyl)piperidin-4-yl]phenyl}-1-(pyridin-3-yl)azetidine-3-carboxamide]", "IC50": 6.88}, {"smiles": "O=C(Nc1ccc(C2CCN(C(=O)c3nccs3)CC2)cc1)C1CN(c2cccnc2)C1", "note": "[Example 108, 1-(pyridin-3-yl)-N-{4-[1-(1,3-thiazol-2-ylcarbonyl)piperidin-4-yl]phenyl}azetidine-3-carboxamide]", "IC50": 0.13}, {"smiles": "O=C(Nc1ccc(C2CCN(C(=O)c3ccsc3)CC2)cc1)C1CN(c2cccnc2)C1", "note": "[Example 109, 1-(pyridin-3-yl)-N-{4-[1-(thiophen-3-ylcarbonyl)piperidin-4-yl]phenyl}azetidine-3-carboxamide]", "IC50": 0.66}, {"smiles": "CC1(C(=O)N2CCC(c3ccc(NC(=O)C4CN(c5cccnc5)C4)cc3)CC2)CC1", "note": "[Example 110, N-(4-{1-[(1-methylcyclopropyl)carbonyl]piperidin-4-yl}phenyl)-1-(pyridin-3-yl)azetidine-3-carboxamide]", "IC50": 0.26}, {"smiles": "Cc1ccsc1C(=O)N1CCC(c2ccc(NC(=O)C3CN(c4cccnc4)C3)cc2)CC1", "note": "[Example 111, N-(4-{1-[(3-methylthiophen-2-yl)carbonyl]piperidin-4-yl}phenyl)-1-(pyridin-3-yl)azetidine-3-carboxamide]", "IC50": 0.64}, {"smiles": "O=C(Nc1ccc(C2CCN(C(=O)CCC(F)(F)F)CC2)cc1)C1CN(c2cccnc2)C1", "note": "[Example 112, 1-(pyridin-3-yl)-N-{4-[1-(4,4,4-trifluorobutanoyl)piperidin-4-yl]phenyl}azetidine-3-carboxamide]", "IC50": 0.76}, {"smiles": "CN1CCN(CC(=O)N2CCC(c3ccc(NC(=O)C4CN(c5cccnc5)C4)cc3)CC2)CC1", "note": "[Example 113, N-(4-{1-[(4-methylpiperazin-1-yl)acetyl]piperidin-4-yl}phenyl)-1-(pyridin-3-yl)azetidine-3-carboxamide]", "IC50": 6.34}, {"smiles": "O=C1CC[C@@H](C(=O)N2CCC(c3ccc(NC(=O)C4CN(c5cccnc5)C4)cc3)CC2)N1", "note": "[Example 114, N-{4-[1-(5-oxo-L-prolyl)piperidin-4-yl]phenyl}-1-(pyridin-3-yl)azetidine-3-carboxamide]", "IC50": 18.1}, {"smiles": "CCOCCC(=O)N1CCC(c2ccc(NC(=O)C3CN(c4cccnc4)C3)cc2)CC1", "note": "[Example 115, N-{4-[1-(3-ethoxypropanoyl)piperidin-4-yl]phenyl}-1-(pyridin-3-yl)azetidine-3-carboxamide]", "IC50": 0.4}, {"smiles": "CC(C)CCC(=O)N1CCC(c2ccc(NC(=O)C3CN(c4cccnc4)C3)cc2)CC1", "note": "[Example 116, N-{4-[1-(4-methylpentanoyl)piperidin-4-yl]phenyl}-1-(pyridin-3-yl)azetidine-3-carboxamide]", "IC50": 0.64}, {"smiles": "CC1(C(=O)N2CCC(c3ccc(NC(=O)C4CN(c5cccnc5)C4)cc3)CC2)CCCCC1", "note": "[Example 117, N-(4-{1-[(1-methylcyclohexyl)carbonyl]piperidin-4-yl}phenyl)-1-(pyridin-3-yl)azetidine-3-carboxamide]", "IC50": 0.63}, {"smiles": "CC(=O)N1CCC(c2ccc(NC(=O)C3CN(c4cccnc4)C3)cc2)CC1", "note": "[Example 118, N-[4-(1-acetylpiperidin-4-yl)phenyl]-1-(pyridin-3-yl)azetidine-3-carboxamide]", "IC50": 0.22}, {"smiles": "O=C(Nc1ccc(C2CCN(C(=O)CC3CCCCC3)CC2)cc1)C1CN(c2cccnc2)C1", "note": "[Example 119, N-{4-[1-(cyclohexylacetyl)piperidin-4-yl]phenyl}-1-(pyridin-3-yl)azetidine-3-carboxamide]", "IC50": 0.19}, {"smiles": "CC(=O)N[C@@H](CC(C)C)C(=O)N1CCC(c2ccc(NC(=O)C3CN(c4cccnc4)C3)cc2)CC1", "note": "[Example 120, N-{4-[1-(N-acetyl-L-leucyl)piperidin-4-yl]phenyl}-1-(pyridin-3-yl)azetidine-3-carboxamide]", "IC50": 0.23}, {"smiles": "CCC(=O)N1CCC(c2ccc(NC(=O)C3CN(c4cccnc4)C3)cc2)CC1", "note": "[Example 121, N-[4-(1-propanoylpiperidin-4-yl)phenyl]-1-(pyridin-3-yl)azetidine-3-carboxamide]", "IC50": 0.62}, {"smiles": "O=C(Nc1ccc(C2CCN(C(=O)CC(F)(F)F)CC2)cc1)C1CN(c2cccnc2)C1", "note": "[Example 122, 1-(pyridin-3-yl)-N-{4-[1-(3,3,3-trifluoropropanoyl)piperidin-4-yl]phenyl}azetidine-3-carboxamide]", "IC50": 0.61}, {"smiles": "COCCOCC(=O)N1CCC(c2ccc(NC(=O)C3CN(c4cccnc4)C3)cc2)CC1", "note": "[Example 123, N-(4-{1-[(2-methoxyethoxy)acetyl]piperidin-4-yl}phenyl)-1-(pyridin-3-yl)azetidine-3-carboxamide]", "IC50": 1.03}, {"smiles": "O=C(Nc1ccc(C2CCN(C(=O)CCN3CCOCC3)CC2)cc1)C1CN(c2cccnc2)C1", "note": "[Example 124, N-(4-{1-[3-(morpholin-4-yl)propanoyl]piperidin-4-yl}phenyl)-1-(pyridin-3-yl)azetidine-3-carboxamide]", "IC50": 1.44}, {"smiles": "CC(C)(C)C(=O)N1CCC(c2ccc(NC(=O)C3CN(c4cccnc4)C3)cc2)CC1", "note": "[Example 125, N-{4-[1-(2,2-dimethylpropanoyl)piperidin-4-yl]phenyl}-1-(pyridin-3-yl)azetidine-3-carboxamide]", "IC50": 0.24}, {"smiles": "Cc1ccc(C(=O)N2CCC(c3ccc(NC(=O)C4CN(c5cccnc5)C4)cc3)CC2)s1", "note": "[Example 126, N-(4-{1-[(5-methylthiophen-2-yl)carbonyl]piperidin-4-yl}phenyl)-1-(pyridin-3-yl)azetidine-3-carboxamide]", "IC50": 0.26}, {"smiles": "O=C(Nc1ccc(C2CCN(C(=O)c3cccs3)CC2)cc1)C1CN(c2cccnc2)C1", "note": "[Example 127, 1-(pyridin-3-yl)-N-{4-[1-(thiophen-2-ylcarbonyl)piperidin-4-yl]phenyl}azetidine-3-carboxamide]", "IC50": 0.14}, {"smiles": "Cn1cccc1C(=O)N1CCC(c2ccc(NC(=O)C3CN(c4cccnc4)C3)cc2)CC1", "note": "[Example 128, N-(4-{1-[(1-methyl-1H-pyrrol-2-yl)carbonyl]piperidin-4-yl}phenyl)-1-(pyridin-3-yl)azetidine-3-carboxamide]", "IC50": 0.16}, {"smiles": "O=C(Nc1ccc(C2CCN(C(=O)c3ccco3)CC2)cc1)C1CN(c2cccnc2)C1", "note": "[Example 129, N-{4-[1-(furan-2-ylcarbonyl)piperidin-4-yl]phenyl}-1-(pyridin-3-yl)azetidine-3-carboxamide]", "IC50": 0.16}, {"smiles": "O=C(Nc1ccc(C2CCN(C(=O)CCN3CCCCC3)CC2)cc1)C1CN(c2cccnc2)C1", "note": "[Example 130, N-(4-{1-[3-(piperidin-1-yl)propanoyl]piperidin-4-yl}phenyl)-1-(pyridin-3-yl)azetidine-3-carboxamide]", "IC50": 1.81}, {"smiles": "CCOCC(=O)N1CCC(c2ccc(NC(=O)C3CN(c4cccnc4)C3)cc2)CC1", "note": "[Example 131, N-{4-[1-(ethoxyacetyl)piperidin-4-yl]phenyl}-1-(pyridin-3-yl)azetidine-3-carboxamide]", "IC50": 0.3}, {"smiles": "CC(C)(C)CC(=O)N1CCC(c2ccc(NC(=O)C3CN(c4cccnc4)C3)cc2)CC1", "note": "[Example 132, N-{4-[1-(3,3-dimethylbutanoyl)piperidin-4-yl]phenyl}-1-(pyridin-3-yl)azetidine-3-carboxamide]", "IC50": 0.23}, {"smiles": "CCC(C)(C)C(=O)N1CCC(c2ccc(NC(=O)C3CN(c4cccnc4)C3)cc2)CC1", "note": "[Example 133, N-{4-[1-(2,2-dimethylbutanoyl)piperidin-4-yl]phenyl}-1-(pyridin-3-yl)azetidine-3-carboxamide]", "IC50": 0.62}, {"smiles": "CCCC(=O)N1CCC(c2ccc(NC(=O)C3CN(c4cccnc4)C3)cc2)CC1", "note": "[Example 134, N-[4-(1-butanoylpiperidin-4-yl)phenyl]-1-(pyridin-3-yl)azetidine-3-carboxamide]", "IC50": 0.64}, {"smiles": "COCC(=O)N1CCC(c2ccc(NC(=O)C3CN(c4cccnc4)C3)cc2)CC1", "note": "[Example 135, N-{4-[1-(methoxyacetyl)piperidin-4-yl]phenyl}-1-(pyridin-3-yl)azetidine-3-carboxamide]", "IC50": 0.3}, {"smiles": "O=C(Nc1ccc(C2CCN(C(=O)C3CCCCC3)CC2)cc1)C1CN(c2cccnc2)C1", "note": "[Example 136, N-{4-[1-(cyclohexylcarbonyl)piperidin-4-yl]phenyl}-1-(pyridin-3-yl)azetidine-3-carboxamide]", "IC50": 0.23}, {"smiles": "CC(C)CC(=O)N1CCC(c2ccc(NC(=O)C3CN(c4cccnc4)C3)cc2)CC1", "note": "[Example 137, N-{4-[1-(3-methylbutanoyl)piperidin-4-yl]phenyl}-1-(pyridin-3-yl)azetidine-3-carboxamide]", "IC50": 0.31}, {"smiles": "O=C(Nc1ccc(C2CCN(C(=O)C3CCCC3)CC2)cc1)C1CN(c2cccnc2)C1", "note": "[Example 138, N-{4-[1-(cyclopentylcarbonyl)piperidin-4-yl]phenyl}-1-(pyridin-3-yl)azetidine-3-carboxamide]", "IC50": 0.23}]}]}
